The text below walks through data of patent publication US6410810B1, “Handling method of (fluoroaryl) borane compound and preparing method of hydrocarbon solution” (Nippon Shokubai Co., Ltd., priority 1997, dated 2002).

How the values of the data set were obtained: The cake is analyzed by ^19F-NMR. More specifically, ^19F-NMR is measured under predetermined conditions using p-fluorotoluene as an internal standard reagent. Then, a peak integral of a fluorine atom of p-fluorotoluene, and a peak integral of fluorine atoms at the ortho-position of a pentafluorophenyl group in tris(pentafluorophenyl)borane are computed from the resulting ^19F-NMR chart first, and thence a weight of tris(pentafluorophenyl)borane is computed using the above two peak integrals.
Here, 0.4963 g (purity: 99%, area ratio) of powders of tris(pentafluorophenyl)borane and 16.0878 g of IsoparE are charged to a vessel, in which the air has been displaced by a nitrogen gas satisfactorily, after which the mixture is stirred for 3 hours or so at 28° C. with stirring.
After the solution is cooled to room temperature, the supernatant is analyzed in the same manner as Example 1 above using ^19F-NMR.

Take `Fc1c(F)c(F)c(B(c2c(F)c(F)c(F)c(F)c2F)c2c(F)c(F)c(F)c(F)c2F)c(F)c1F` [tris(pentafluorophenyl)borane]: the “concentration of tris(pentafluorophenyl)borane in supernatant” value is reported as 0.91 wt % and the “solubility with respect to IsoparE” value was 0.91 wt %. Also, the “temperature at which completely dissolved into IsoparE” value (0.4963 g powders in 16.0878 g IsoparE, heated) stood at 87 °C. The “dissolution into IsoparE” value (0.4963 g powders in 16.0878 g IsoparE, stirred 3 hours or so at 28° C.) is given as “does not dissolve into IsoparE completely”. Also, the “purity after dissolving with heating (stability)” value (3 wt %) is recorded as 83.0 % (area ratio). For the same compound, the “temperature at which the solution starts to crystallize on cooling” value (IsoparE solution allowed to stand and cooled) amounted to 63 °C.
